The results in this text go back to patent US10464926B2, “Heterobicyclic compounds and their use for the treatment of tuberculosis” (OTSUKA PHARMACEUTICAL CO., LTD., priority 2014, dated 2019).

A word on the melting point: it is the temperature of the solid-liquid transition. The molecule `O=C1CCc2c(OCC3(O)CCN(c4ccc(Cl)cc4F)CC3)ccc(Cl)c2N1` displayed a melting point of 222.9 to 223 °C.
Then `O=C1CCc2c(OCC3(O)CCN(c4cc(OC(F)(F)F)c(Cl)cc4F)CC3)ccc(F)c2N1`, with 208 °C; and `CCOc1cc(F)c(N2CCC(O)(COc3ccc(Cl)c4c3CCC(=O)N4)CC2)cc1F`, with 169 to 169.2 °C; and `O=C1CCc2c(OCC3(O)CCN(c4ccc(OC(F)(F)F)cc4F)CC3)ccc(Cl)c2N1`, with 149.7 to 149.9 °C.
In turn, `COc1cc(F)c(N2CCC(O)(COc3ccc(Cl)c4c3CCC(=O)N4)CC2)c(F)c1` came in with a melting point of 171.1 to 171.3 °C.
Turning to `CCOc1c(F)c(F)c(N2CCC(O)(COc3ccc(F)c4c3CCC(=O)N4)CC2)c(F)c1F`, the melting point was 208.9 to 209.3 °C.
For `CCOc1c(F)c(F)c(N2CCC(O)(COc3ccc(Cl)c4c3CCC(=O)N4)CC2)c(F)c1F`, the melting point was in the range of 174.4 to 174.5 °C.
Turning to `COCCOCCOc1ccc(N2CCC(O)(COc3ccc(F)c4c3CCC(=O)N4)CC2)c(F)c1`, the melting point lay within 128.7 to 130.7 °C.
`Cc1cc(N2CCC(O)(COc3ccc(F)c4c3CCC(=O)N4)CC2)c(F)cc1Cl`: the melting point lay in the range of 208.6 to 208.8 °C.
Turning to `Cc1cc(Cl)cc(F)c1N1CCC(O)(COc2ccc(F)c3c2CCC(=O)N3)CC1`, the melting point fell in the range of 258.8 to 259 °C.
The figure for `CCOc1cc(F)c(N2CCC(O)(COc3ccc(F)c4c3CCC(=O)N4)CC2)cc1OC` is 190.8 to 191.1 °C; for `CCOc1cc(F)c(N2CCC(O)(COc3ccc(F)c4c3CCC(=O)N4)CC2)c(F)c1` it is 207.9 to 208.8 °C; for `O=C1CCc2c(OCC3(O)CCN(c4ccc5sccc5c4)CC3)ccc(F)c2N1` it is 209.5 to 210.2 °C.
The figure for `O=C1CCc2c(OCC3(O)CCN(c4ccc5sccc5c4)CC3)ccc(Cl)c2N1` is 193.8 to 194.5 °C; for `O=C1CCc2c(OCC3(O)CCN(c4ccc5occc5c4)CC3)ccc(F)c2N1` it is 215.7 to 216 °C.
Regarding `O=C1CCc2c(OCC3(O)CCN(c4ncc(C(F)(F)F)cc4Cl)CC3)ccc(Cl)c2N1`, the melting point was 193 to 194.7 °C.
In the case of `O=C1CCc2c(OCC3(O)CCN(c4ncc(Cl)cc4F)CC3)ccc(Cl)c2N1`, the melting point lay within 174.4 to 175.8 °C.
In turn, `O=C1CCc2c(OCC3(O)CCN(c4ccc(F)cc4F)CC3)ccc(Cl)c2N1` registered a melting point of 200 to 200.3 °C.
For the molecule `CC(C)Oc1cc(N2CCC(O)(COc3ccc(F)c4c3CCC(=O)N4)CC2)c(F)cc1Cl`, the melting point was 216.7 to 217 °C.
As for `O=C1CCc2c(OCC3(O)CCN(c4cc(OCc5ccc(Cl)cc5)c(Cl)cc4F)CC3)ccc(F)c2N1`, the melting point was 205.1 to 205.7 °C.
As for `CC(C)Oc1cc(N2CCC(O)(COc3ccc(Cl)c4c3CCC(=O)N4)CC2)c(F)cc1Cl`, the melting point lay in the range of 173.3 to 173.5 °C.
In turn, `COCCOc1cc(N2CCC(O)(COc3ccc(F)c4c3CCC(=O)N4)CC2)c(F)cc1Cl` returned a melting point of 170.6 to 170.8 °C.
As for `CN(C)CCOc1cc(N2CCC(O)(COc3ccc(F)c4c3CCC(=O)N4)CC2)c(F)cc1Cl`, the melting point was in the range of 162.9 to 164.1 °C.
Turning to `CCCOc1cc(N2CCC(O)(COc3ccc(F)c4c3CCC(=O)N4)CC2)c(F)cc1Cl`, the melting point fell in the range of 200.7 to 201.4 °C.
In turn, `O=C1CCc2c(OCC3(O)CCN(c4cc(OCCOc5ccc(F)cc5)c(Cl)cc4F)CC3)ccc(F)c2N1` displayed a melting point of 159.2 to 160 °C.
As to `CCCc1cc(N2CCC(O)(COc3ccc(F)c4c3CCC(=O)N4)CC2)c(F)cc1Cl`, the melting point fell in the range of 196.5 to 196.6 °C.
With `Cc1cc(N2CCC(O)(COc3ccc(Cl)c4c3CCC(=O)N4)CC2)c(F)cc1F`, the melting point lay within 195 to 195.2 °C.
For `Cc1ccc(N2CCC(O)(COc3ccc(Cl)c4c3CCC(=O)N4)CC2)nc1C`, the melting point lay within 169.6 to 171 °C.
In turn, `CCc1cc(N2CCC(O)(COc3ccc(F)c4c3CCC(=O)N4)CC2)c(F)cc1Cl` registered a melting point of 201.3 to 202.4 °C.
The figure for `COc1cc(N2CCC(O)(COc3ccc(Cl)c4c3CCC(=O)N4)CC2)c(F)cc1Cl` is 228.7 to 228.9 °C; for `O=C1CCc2c(OCC3(O)CCN(c4ncc(Br)cc4F)CC3)ccc(Cl)c2N1` it is 231.2 to 233.5 °C.
As to `CSc1ccc(N2CCC(O)(COc3ccc(Cl)c4c3CCC(=O)N4)CC2)c(Cl)c1`, the melting point fell in the range of 160.7 to 160.9 °C.
The figure for `O=C1CCc2c(OCC3(O)CCN(c4cc5c(cc4F)OC(F)(F)O5)CC3)ccc(F)c2N1` is 226.6 to 226.7 °C; for `O=C1CCc2c(OCC3(O)CCN(c4ccc(Br)cc4F)CC3)ccc(Cl)c2N1` it is 223.1 to 223.2 °C.
For `O=C1CCc2c(OCC3(O)CCN(c4c(F)cc(Br)cc4F)CC3)ccc(Cl)c2N1`, the melting point is 195.3 to 195.4 °C.
In turn, `CCc1cc(N2CCC(O)(COc3ccc(F)c4c3CCC(=O)N4)CC2)c(F)cc1F` had a melting point of 186.7 to 186.8 °C.
As for `CCCc1cc(N2CCC(O)(COc3ccc(Cl)c4c3CCC(=O)N4)CC2)c(F)cc1F`, the melting point is 156.9 to 157 °C.
In the case of `O=C1CCc2c(OCC3(O)CCN(c4cc5c(cc4F)OC(F)(F)O5)CC3)cc(F)c(Cl)c2N1`, the melting point is 249.4 to 250.5 °C (dec.).
The figure for `O=C1CCc2c(OCC3(O)CCN(c4nc5ccc(Cl)cc5o4)CC3)ccc(F)c2N1` is 249 to 250 °C.
`O=C1CCc2c(OC[C@]3(O)CCN(c4c(F)cc(Cl)cc4F)C[C@H]3O)ccc(Cl)c2N1` registered a melting point of 197 to 199 °C.
The figure for `O=C1CCc2c(OC[C@]3(O)CCN(c4cc(Cl)c(F)cc4Cl)C[C@H]3O)ccc(F)c2N1` is 216 to 216.3 °C; for `O=C1CCc2c(OC[C@]3(O)CCN(c4ccc(Cl)cc4Cl)C[C@H]3O)ccc(Cl)c2N1` it is 184.1 to 185.1 °C.
`O=C1CCc2c(OC[C@]3(O)CCN(c4c(F)cc(Br)cc4F)C[C@H]3O)cc(F)c(F)c2N1` came in with a melting point of 204.5 to 204.6 °C.
Regarding `Cn1c(N2CC[C@@](O)(COc3ccc(F)c4c3CCC(=O)N4)[C@H](O)C2)nc2ccccc21`, the melting point lay within 138 to 147 °C.
The figure for `O=C1CCc2c(NCC3(O)CCN(c4ccc(Cl)cc4Cl)CC3)ccc(F)c2N1` is 226 to 227 °C; for `O=C1CCc2c(OCC3(O)CCN(c4ccc5ccccc5n4)CC3)ccc(F)c2N1` it is 198 to 199 °C.
Take `O=C1CCc2c(OCC3CCN(c4ncc(Cl)cc4Cl)CC3)ccc(Cl)c2N1`: the melting point was 190 to 191 °C.
`COC1(COc2ccc(F)c3c2CCC(=O)N3)CCN(c2ncc(Cl)cc2Cl)CC1` registered a melting point of 181 to 182 °C.
In turn, `N#CC1(COc2ccc(F)c3c2CCC(=O)N3)CCN(c2ncc(Cl)cc2Cl)CC1` came in with a melting point of 218 °C.
The figure for `O=C1CCc2c(OCC3(O)CCN(c4cc(Cl)c(F)cc4Cl)CC3)ccc(F)c2N1` is 207.9 °C.
The figure for `CCNC(=O)O[C@@H]1CN(c2ccc(Cl)cc2F)CC[C@@]1(O)COc1ccc(F)c2c1CCC(=O)N2` is 156 to 157 °C; for `O=C1CCc2c(OCC3(O)CCN(c4ccc(C(F)(F)F)cc4)CC3)ccc(F)c2N1` it is 216.1 °C; for `O=C1CCc2c(OCC3(O)CCN(c4cccnc4)CC3)ccc(F)c2N1` it is 178.2 to 178.8 °C.
For the molecule `O=C1CCc2c(OCC3(O)CCN(c4cc(F)c(Cl)cc4Cl)CC3)ccc(F)c2N1`, the melting point is 198.7 to 198.9 °C.
On to `O=C1CCc2c(OCC3(O)CCN(c4ccc(Cl)c(Cl)c4)CC3)ccc(F)c2N1`, for which the melting point lay within 230.9 to 231.2 °C.
In the case of `O=C1CCc2c(OCC3(O)CCN(c4ccsc4)CC3)ccc(F)c2N1`, the melting point was in the range of 200.4 to 200.5 °C.
`O=C1CCc2c(OCC3(O)CCN(c4c(F)cccc4Cl)CC3)ccc(F)c2N1` returned a melting point of 212 to 213 °C.
Take `O=C1CCc2c(OCC3(O)CCN(c4cc(F)c(Cl)cc4F)CC3)ccc(F)c2N1`: the melting point lay in the range of 185.1 to 185.2 °C.
In turn, `COc1cc(N2CCC(O)(COc3ccc(F)c4c3CCC(=O)N4)CC2)ccc1Cl` displayed a melting point of 222.6 to 222.7 °C.
As to `O=C1CCc2c(OCC3(O)CCN(c4c(Cl)cccc4Cl)CC3)ccc(F)c2N1`, the melting point fell in the range of 203.6 to 203.8 °C.
Take `CCOc1ccc(N2CCC(O)(COc3ccc(F)c4c3CCC(=O)N4)CC2)cc1`: the melting point fell in the range of 198.8 to 199.1 °C.
Then `CC(C)c1ccc(N2CCC(O)(COc3ccc(F)c4c3CCC(=O)N4)CC2)cc1`, with 194.9 to 195 °C; and `O=C1CCc2c(OCC3(O)CCN(c4ccc(Oc5ccccc5)cc4)CC3)ccc(F)c2N1`, with 186.9 to 187.2 °C.
Molecule `O=C1CCc2c(OCC3(O)CCN(c4cc(OC(F)(F)F)ccc4Cl)CC3)ccc(F)c2N1` returned a melting point of 190.4 to 190.5 °C.
The figure for `CC(C)c1ccccc1N1CCC(O)(COc2ccc(F)c3c2CCC(=O)N3)CC1` is 163 to 163.3 °C; for `CCc1ccccc1N1CCC(O)(COc2ccc(F)c3c2CCC(=O)N3)CC1` it is 178.6 to 179.3 °C; for `Cc1cc(N2CCC(O)(COc3ccc(F)c4c3CCC(=O)N4)CC2)ccc1Cl` it is 216.1 to 216.3 °C.
`CCOC(=O)c1cc(N2CCC(O)(COc3ccc(F)c4c3CCC(=O)N4)CC2)ccc1Cl` displayed a melting point of 148 °C.
As for `Cc1ccc(N2CCC(O)(COc3ccc(F)c4c3CCC(=O)N4)CC2)cc1`, the melting point was determined as 181 °C.
Consider `O=C1CCc2c(OCC3(O)CCN(c4ccc(Cl)cc4[N+](=O)[O-])CC3)ccc(F)c2N1`, for which the melting point lay within 188 to 189 °C.
Then `CCCOc1ccc(N2CCC(O)(COc3ccc(F)c4c3CCC(=O)N4)CC2)c(F)c1`, with 185.1 to 185.9 °C; and `CCCc1ccc(N2CCC(O)(COc3ccc(F)c4c3CCC(=O)N4)CC2)c(Cl)c1`, with 197.5 to 197.6 °C.
`CC(C)Oc1ccc(N2CCC(O)(COc3ccc(F)c4c3CCC(=O)N4)CC2)c(F)c1` had a melting point of 191.9 to 192.2 °C.
Take `O=C1CCc2c(OCC3(O)CCN(c4ccc(OC(F)(F)F)cc4Cl)CC3)ccc(F)c2N1`: the melting point lay within 181.8 to 181.9 °C.
Regarding `O=C1CCc2c(OCC3(O)CCN(c4cc(OC(F)(F)F)c(Cl)cc4Cl)CC3)ccc(F)c2N1`, the melting point was 254.8 to 254.9 °C.
As for `COc1ccc(N2CCC(O)(COc3ccc(F)c4c3CCC(=O)N4)CC2)c(F)c1`, the melting point fell in the range of 201.3 to 201.9 °C.
